In patent publication US10723702B2, “Photocrosslinking reagents and methods of use thereof” (Northwestern University, priority 2015, dated 2020):
“Also recorded” adds a separate entry of the source.

Tests used:
UbcH7 [1] = assay: UbcH7 C86S-Ub oxyester formation by crosslinker-alkylated UbcH7; assay type: biochemical, human; settings: oxyester formation and ubiquitin transfer retained
Protocol: (§1) FIGS. 5A-C. Crosslinker-modified UbcH7 charged with ubiquitin. UbcH7 C86S-Ub oxyester interacts with E6AP to transfer ubiquitin. (A.) Each alkylated mutant is competent to form an UbcH7 C86S-Ub oxyester except when the catalytic cysteine C86 is alkylated with crosslinker (lane 9). UbcH7 mutants alkylated by crosslinker 1 at the indicated residue (5 μM) were incubated with Ube1 (200 nM), ubiquitin (10 μM) in the dark at 37° C. for 15 hours in 25 mM HEPES pH 7.5, 50 mM NaCl, 10 mM MgCl2, 1 mM DTT with or without ATP (185 μM). Reactions were quenched with 6× Laemmli buffer with β-ME and incubated at room temperature for 5 minutes without boiling. The “*” marks a faint GST impurity. […] (C.) UbcH7 CΔS-Ub oxyester alkylated with crosslinker transfers ubiquitin to E6AP HECT (compare to FIG. 2B where E6AP HECT is a single band). […] UbcH7-Ub oxyester (5 μM) was incubated with or without E6AP-HECT (5 μM) in PBS(B) for 20 hours at room temperature. Reactions were quenched with 6× Laemmli buffer with β-ME and incubated at room temperature for 5 minutes without boiling.

[2] = tested on: UbcH7 mutants with a single cysteine available; assay: Alkylation conversion of UbcH7 mono-cysteine mutants by crosslinker, estimated by LCMS; assay type: biochemical, human; settings: all mono-cysteine UbcH7 mutants; intact protein mass spectrometry
Protocol: Crosslinker in DMF (500 mM, 5 mM final concentration) was added to a UbcH7 cysteine mutant (100-200 μM in UbcH7 storage buffer; 1% DMF v/v final concentration). The resulting reaction mixture was mixed by pipetting, covered with aluminum foil, and rocked at room temperature (crosslinkers 1), or 4° C. (crosslinker 2 and 3) for 90 minutes. Immediately following, the solution was desalted/exchanged into PBS(B) with a Zeba Spin Desalting Column (7 kDa MWCO Pierce), frozen in N2(l), and stored at −80° C. The extent of alklylation was analyzed by LC-MS.
(§2) Alkylation of UbcH7 cysteine mutants occurred readily by incubating 50-300 μM UbcH7 with 5 mM crosslinker 1 at room temperature for 90 minutes before removing free crosslinker with a desalting column. […] The UbcH7 CΔS-1 mutants (10 μM) were then mixed with the E6AP catalytic HECT domain (10 μM) and irradiated at 365 nm for 10 minutes in a 96-well plate. The reaction mixtures were then resolved with reducing SDS-PAGE and analyzed with anti-UbcH7 western blot. Photocrosslinking of UbcH7 to E6AP depends on the presence of both UV irradiation and E6AP (FIG. 6).

E6AP HECT domain [3] = target: T1, E6AP HECT domain (Homo sapiens, UniProt Q05086); assay: Photocrosslinking of crosslinker-alkylated UbcH7 to E6AP HECT (365 nm, SDS-PAGE/western blot); assay type: biochemical; settings: crosslinker on UbcH7 CΔS E93C 10 μM, E6AP-HECT 10 μM, 365 nm 10 minutes
T1 construct: Underlined residues remain from the GST tag and are not part; GST (N, cleaved yes); made in house; host or cells: E. coli Rosetta (DE3) pLysS (E6AP HECT); E. coli BL21 (UbcH7)
T1 sequence (Q05086 with tags, fused parts or gaps): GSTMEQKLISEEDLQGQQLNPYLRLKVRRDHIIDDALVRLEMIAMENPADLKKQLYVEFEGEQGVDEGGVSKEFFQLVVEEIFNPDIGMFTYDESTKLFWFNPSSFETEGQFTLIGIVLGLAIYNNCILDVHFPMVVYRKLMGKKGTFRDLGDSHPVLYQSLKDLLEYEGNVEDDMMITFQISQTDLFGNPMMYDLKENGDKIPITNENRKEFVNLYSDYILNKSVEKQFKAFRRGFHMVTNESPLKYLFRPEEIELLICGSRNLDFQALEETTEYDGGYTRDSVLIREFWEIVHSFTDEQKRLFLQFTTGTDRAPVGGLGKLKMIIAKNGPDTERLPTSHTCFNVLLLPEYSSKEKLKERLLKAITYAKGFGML
Protocol: (§3) FIG. 4. […] UbcH7 CΔS E93C-2 or UbcH7 CΔS E93C-3 (10 μM final concentration) was incubated with E6AP-HECT (10 μM final concentration) in PBS(B) with 6 μM Tween-20 and 1 mM DTT. After keeping samples in the dark or irradiating at 365 nm for 10 minutes, they were quenched with 6× Laemmli buffer and β-mercaptoethanol (β-ME) and then boiled at 95° C. for 5 minutes. Covalently crosslinked protein complexes were resolved by SDS-PAGE and visualized by western blot and coomassie.
(§4) E6AP HECT was exchanged into crosslinker buffer with Zeba Spin Desalting Column and mixed (14 μM final concentration, 480 μg) with Tween-20 (6 μM), DTT (1 mM) in PBS(B) in a 1.5 mL tube. The reaction mixture was then taken to a darkened room where alkylated UbcH7 (14 μM, final concentration, 203 μg) was added (final volume of reaction mixture was 790 μL). The solution was mixed by pipetting and then transferred to four wells of a 96 well plate (Costar #3370). The plate was placed 3 cm below a UV lamp (UVP 3UV-38 3UV Lamp; 8 watt, 115V ˜60 Hz, 0.16 Amps) and irradiated at 365 nm for 10 minutes.
(§5) Following irradiation, the sample was mixed with Laemmli buffer and β-mercaptoethanol (230 mM final concentration) and boiled for five minutes. Crosslinking experiments in main text FIGS. 2, 3, and 4 were performed similarly with 20-50 μL total volume and with the indicated final concentrations of UbcH7 and E6AP.
as §2

E6AP-HECT = target: T2, E6AP-HECT (Homo sapiens, UniProt Q05086); settings: read-out: Binding affinity Kd for E6AP-HECT; cited from earlier work
T2 sequence (Q05086 495-852 isoform Q05086-2 limits assumed): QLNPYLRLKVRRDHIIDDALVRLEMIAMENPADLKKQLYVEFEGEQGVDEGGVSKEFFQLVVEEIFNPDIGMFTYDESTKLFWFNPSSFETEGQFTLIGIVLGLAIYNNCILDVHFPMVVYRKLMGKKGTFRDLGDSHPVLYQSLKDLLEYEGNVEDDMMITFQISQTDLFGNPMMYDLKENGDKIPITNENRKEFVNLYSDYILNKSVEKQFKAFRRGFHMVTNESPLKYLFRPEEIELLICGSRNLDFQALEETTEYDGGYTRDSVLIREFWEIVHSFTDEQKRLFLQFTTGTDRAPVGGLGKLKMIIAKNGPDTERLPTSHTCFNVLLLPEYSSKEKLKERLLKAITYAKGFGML

E6AP HECT domain [4] = assay: Photocrosslinking of crosslinker-alkylated UbcH7 to E6AP HECT (365 nm, SDS-PAGE/western blot); assay type: biochemical; settings: for Crosslinking of E6AP by UbcH7 CΔS F63A mutants or their Ub oxyesters bearing crosslinker: F63A negative control
Protocol: as §3, §4, §5, §2

UbcH7/E6AP interaction = assay: Ubiquitin transfer from alkylated UbcH7 CΔS-Ub oxyester to E6AP HECT; assay type: biochemical; settings: UbcH7-Ub oxyester 5 μM, E6AP-HECT 5 μM, PBS(B), 20 hours, room temperature
Protocol: as §1

[5] = Acid cleavage of crosslinker in photocrosslinked UbcH7-E6AP complex; assay type: physicochemical; settings: pH 1, 55° C.
Protocol: FIGS. 12A-E. Mass spectrometry protocol to identify crosslinker modifications on E6AP. A. The band corresponding to the crosslinked UbcH7-E6AP complex was excised and loaded to the denaturing electroelution device. After eluting complexes from the gels, photocrosslinked protein complexes were cleaved under acidic conditions, trypsinized, and then analyzed. B. Crosslinker 2 is cleavable at pH 1, 55° C. I. UbcH7-E6AP crosslink. II. E6AP-HECT. C. By conducting the acidic cleavage of photocrosslinked proteins in Tris-Glycine-SDS buffer, we avoided hydrolysis of the peptide backbone. I. UbcH7-E6AP crosslink. II. E6AP-HECT. III. UbcH7. D. MS^2 identification of E6AP Lys^847 modified by crosslinker 2. y-ions are highlighted. The full spectrum and b-ion identification can be found in Spectral Appendix I. E. Residue map of the E6AP C-terminus indicating sites of crosslinker modification by UbcH7 CΔS E93C-2/3 or UbcH7 CΔS E93C Ub-2/3.
Electroelution fractions in Tris-Glycine-SDS buffer were treated with 1 M aqueous HCl (protein sample/1 M HCl 4:1 v/v) to obtain pH 1 in a 1.5 microcentrifuge tube (one gel's worth of elution per tube). […]
To identify the photocrosslinked sites of E6AP, a mass spectrometry protocol was developed. […] Finally, protein was precipitated with acetone, digested with trypsin, and then analyzed the peptides with an Orbitrap Velos.

UbcH7 [6] = target: T3, UbcH7 (Homo sapiens, UniProt P68036, C137S/C17S/C86S/E93C); assay: UbcH7 C86S-Ub oxyester formation by crosslinker-alkylated UbcH7; assay type: biochemical; settings: crosslinker on UbcH7 CΔS E93C; Ube1, ubiquitin, ATP, 37° C., 15 hours
T3 construct: Underlined residues remain from the GST tag and are not part; GST (N, cleaved yes); made in house; host or cells: E. coli BL21 (UbcH7)
T3 sequence (P68036 with tags, fused parts or gaps C17S/C86S/E93C/C137S): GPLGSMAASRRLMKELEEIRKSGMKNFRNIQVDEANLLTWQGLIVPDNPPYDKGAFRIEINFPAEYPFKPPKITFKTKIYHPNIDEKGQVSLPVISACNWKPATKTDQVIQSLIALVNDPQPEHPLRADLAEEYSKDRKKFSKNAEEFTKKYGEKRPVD
Protocol: as §1

Molecule	Effect of mutagenesis and alkylation with crosslinker on E2 enzyme structure (UbcH7 [1])	Labeling (mono-alkylation) of UbcH7 cysteine mutants, in words [2]	Photocrosslinking efficiency (E6AP HECT domain [3])	Kd (E6AP-HECT) [µM]	Crosslinking of E6AP by UbcH7 CΔS F63A mutants or their Ub oxyesters bearing crosslinker (E6AP HECT domain [4])	Crosslinking efficiency by crosslinker position on UbcH7 (E6AP HECT domain [4]; crosslinker placed at UbcH7 CΔS E93C or catalytic cysteine Cys86, 10 μM each, 365 nm 10 minutes)	Interference of crosslinker with UbcH7/E6AP interaction (ubiquitin transfer to E6AP HECT) (UbcH7/E6AP interaction)	Cleavage of crosslinker under acidic conditions [5]	Effect of crosslinker on efficiency of UbcH7-Ub oxyester formation (UbcH7 [6])
[2H]C([2H])([2H])C1(C([2H])([2H])COS(=O)(=O)NC(=O)CI)N=N1 [Crosslinker 3]	did not compromise the E2 enzyme structure	not as reactive with some of the mutants	equal photocrosslinking efficiency						
UbcH7: E2 enzyme upstream of E6AP (SEQ ID NO: 2)				5					
CC1(CCNC(=O)CI)N=N1 [Crosslinker 1]	did not compromise the E2 enzyme structure	quantitatively labeled every UbcH7 cysteine mutant; also recorded: near quantitative mono-alkylation			did not crosslink E6AP	most efficient crosslinking	does not interfere with the UbcH7/E6AP interaction		
CC1(CCOS(=O)(=O)NC(=O)CI)N=N1 [Crosslinker 2]	did not compromise the E2 enzyme structure	not as reactive with some of the mutants	equal photocrosslinking efficiency		did not crosslink E6AP			cleavable	does not affect the efficiency of UbcH7-Ub oxyester formation
